Results as given in the supplement of paper PMC10627819.

Legend:
B. subtilis 168 [1] = assay: fitness (endpoint OD595 vs no drug) (fraction); higher = more growth
How it was run: (§1)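 Bacterial fitness was scored as optical density at the stationary-phase transition relative to the robust mean of no-drug control wells. Scores are capped at 1. The growth data were OD595 readings every 30 min for 14 h at 37 °C, background-subtracted against the first reading, from 384-well plates inoculated at OD595 0.01 in TSB, LB Lennox or CY.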

S. aureus DSM 20231 [2] = assay: as above
How it was run: as §1

S. aureus Newman [3] = assay: as above
How it was run: as §1

S. pneumoniae D39V [4] = assay: as above
How it was run: as §1

B. subtilis 168 [5] = assay: Bliss interaction score (quartile over a dose matrix) (fitness difference); higher = more antagonism (negative = synergy)
How it was run: (§2)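 Fitness was defined as normalised growth: OD595 at the start of stationary phase divided by the plate's robust no-drug mean and capped at 1. Single-drug fitness was inferred from combination measurements. The Bliss score is observed fitness minus the product of the single-drug values, summarised by quartiles across technical, biological and donor/recipient replicates.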

S. aureus DSM 20231 [6] = assay: as above
How it was run: as §2

S. aureus Newman [7] = assay: as above
How it was run: as §2

S. pneumoniae D39V [8] = assay: as above
How it was run: as §2
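Throughout, for Bliss interaction score (quartile over a dose matrix): first quartile when negative (synergy) and third quartile when positive (antagonism).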
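Throughout, for fitness (endpoint OD595 vs no drug): OD595 on entry to stationary phase over no-drug wells; at most 1.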

C[n+]1ccc(-c2cc[n+](C)cc2)cc1 [Paraquat] + COc1ccc(C[C@H](N)C(=O)N[C@H]2[C@@H](O)[C@H](n3cnc4c(N(C)C)ncnc43)O[C@@H]2CO)cc1 [Puromycin]
fitness
Conditions | first compound 1.25 µg/mL | first compound 1.5 µg/mL | first compound 2.5 µg/mL | first compound 3 µg/mL | first compound 5 µg/mL | first compound 6 µg/mL
B. subtilis 168 [1], partner 0.39 µg/mL | 0.957 | – | 0.913 | – | 0.792 | –
B. subtilis 168 [1], partner 0.78 µg/mL | 0.924 | – | 0.894 | – | 0.779 | –
B. subtilis 168 [1], partner 1.56 µg/mL | 0.883 | – | 0.858 | – | 0.747 | –
S. aureus DSM 20231 [2], partner 0.39 µg/mL | 0.978 | – | 0.98 | – | 0.977 | –
S. aureus DSM 20231 [2], partner 0.78 µg/mL | 0.97 | – | ≥ 1 | – | 0.983 | –
S. aureus DSM 20231 [2], partner 1.56 µg/mL | 0.964 | – | ≥ 1 | – | 0.989 | –
S. aureus Newman [3], partner 0.39 µg/mL | 0.937 | – | 0.965 | – | 0.979 | –
S. aureus Newman [3], partner 0.78 µg/mL | ≥ 1 | – | 0.99 | – | 0.981 | –
S. aureus Newman [3], partner 1.56 µg/mL | ≥ 1 | – | 0.971 | – | 0.994 | –
S. pneumoniae D39V [4], partner 1 µg/mL | – | 0.996 | – | ≥ 1 | – | ≥ 1
S. pneumoniae D39V [4], partner 2 µg/mL | – | 0.973 | – | 0.982 | – | 0.966
S. pneumoniae D39V [4], partner 4 µg/mL | – | 0.852 | – | 0.856 | – | 0.861

fitness, S. aureus DSM 20231 [2], one replicate
Conditions | first compound 1.25 µg/mL | first compound 2.5 µg/mL | first compound 5 µg/mL
partner 3.12 µg/mL | 0.926 | 0.976 | 0.965
partner 6.24 µg/mL | 0.732 | 0.703 | 0.689

Conditions | Bliss interaction score
B. subtilis 168 [5] | 0.0238
S. aureus DSM 20231 [6] | 0.0717
S. aureus Newman [7] | 0.0892
S. pneumoniae D39V [8] | 0.135

Cc1onc(-c2ccccc2)c1C(=O)N[C@@H]1C(=O)N2[C@@H]1SC(C)(C)[C@@H]2C(=O)O [Oxacillin] + Cc1cc(NS(=O)(=O)c2ccc(N)cc2)no1 [Sulfamethoxazol]
fitness
Conditions | partner 1 µg/mL | partner 2 µg/mL | partner 4 µg/mL
B. subtilis 168 [1], first compound 0.002 µg/mL | 0.996 | 0.968 | ≥ 1
B. subtilis 168 [1], first compound 0.004 µg/mL | 0.988 | 0.947 | 0.984
B. subtilis 168 [1], first compound 0.008 µg/mL | 0.93 | 0.929 | 0.915
S. aureus DSM 20231 [2], first compound 0.0156 µg/mL | 0.795 | 0.865 | 0.866
S. aureus DSM 20231 [2], first compound 0.0312 µg/mL | 0.636 | 0.65 | 0.719
S. aureus DSM 20231 [2], first compound 0.0625 µg/mL | 0.469 | 0.462 | 0.485
S. aureus Newman [3], first compound 0.0156 µg/mL | 0.748 | 0.686 | –
S. aureus Newman [3], first compound 0.0312 µg/mL | 0.758 | 0.688 | –
S. aureus Newman [3], first compound 0.0625 µg/mL | 0.63 | 0.624 | 0.556
S. pneumoniae D39V [4], first compound 0.01 µg/mL | 0.954 | 0.961 | 0.966
S. pneumoniae D39V [4], first compound 0.02 µg/mL | 0.888 | 0.904 | 0.915
S. pneumoniae D39V [4], first compound 0.04 µg/mL | 0.273 | 0.32 | 0.395

one replicate
Conditions | fitness
B. subtilis 168 [1], first compound 0.0078 µg/mL, partner 0.5 µg/mL | 0.943
B. subtilis 168 [1], first compound 0.0078 µg/mL, partner 1 µg/mL | 0.864
B. subtilis 168 [1], first compound 0.0078 µg/mL, partner 2 µg/mL | 0.896
B. subtilis 168 [1], first compound 0.0155 µg/mL, partner 0.5 µg/mL | 0.997
B. subtilis 168 [1], first compound 0.0155 µg/mL, partner 1 µg/mL | 0.755
B. subtilis 168 [1], first compound 0.0155 µg/mL, partner 2 µg/mL | 0.877
B. subtilis 168 [1], first compound 0.031 µg/mL, partner 0.5 µg/mL | 0.921
B. subtilis 168 [1], first compound 0.031 µg/mL, partner 1 µg/mL | 0.9
B. subtilis 168 [1], first compound 0.031 µg/mL, partner 2 µg/mL | 0.866
B. subtilis 168 [1], first compound 0.075 µg/mL, partner 1 µg/mL | 0.49
B. subtilis 168 [1], first compound 0.075 µg/mL, partner 2 µg/mL | 0.454
B. subtilis 168 [1], first compound 0.075 µg/mL, partner 4 µg/mL | 0.529
B. subtilis 168 [1], first compound 0.15 µg/mL, partner 1 µg/mL | 0.0391
B. subtilis 168 [1], first compound 0.15 µg/mL, partner 2 µg/mL | 0.0283
B. subtilis 168 [1], first compound 0.15 µg/mL, partner 4 µg/mL | 0.0224
B. subtilis 168 [1], first compound 0.3 µg/mL, partner 1 µg/mL | 0.0079
B. subtilis 168 [1], first compound 0.3 µg/mL, partner 2 µg/mL | 0.0431
B. subtilis 168 [1], first compound 0.3 µg/mL, partner 4 µg/mL | 0.0098
S. aureus Newman [3], first compound 0.0156 µg/mL, partner 8 µg/mL | 0.9
S. aureus Newman [3], first compound 0.0312 µg/mL, partner 8 µg/mL | 0.845
S. aureus Newman [3], first compound 0.0625 µg/mL, partner 8 µg/mL | 0.783

Conditions | Bliss interaction score
B. subtilis 168 [5] | 0.0542
S. aureus DSM 20231 [6] | -0.0464
S. aureus Newman [7] | -0.0519
S. pneumoniae D39V [8] | 0.0796

Cc1onc(-c2ccccc2)c1C(=O)N[C@@H]1C(=O)N2[C@@H]1SC(C)(C)[C@@H]2C(=O)O [Oxacillin] + CN1C2=CC=CC=C2N=C3C1=CC=CC3=O [Pyocyanin]
Conditions | fitness
B. subtilis 168 [1], first compound 0.002 µg/mL, partner 1.25 µg/mL | 0.93
B. subtilis 168 [1], first compound 0.002 µg/mL, partner 2.5 µg/mL | 0.891
B. subtilis 168 [1], first compound 0.002 µg/mL, partner 5 µg/mL | 0.768
B. subtilis 168 [1], first compound 0.004 µg/mL, partner 1.25 µg/mL | 0.918
B. subtilis 168 [1], first compound 0.004 µg/mL, partner 2.5 µg/mL | 0.839
B. subtilis 168 [1], first compound 0.004 µg/mL, partner 5 µg/mL | 0.703
B. subtilis 168 [1], first compound 0.008 µg/mL, partner 1.25 µg/mL | 0.847
B. subtilis 168 [1], first compound 0.008 µg/mL, partner 2.5 µg/mL | 0.79
B. subtilis 168 [1], first compound 0.008 µg/mL, partner 5 µg/mL | 0.675
S. aureus DSM 20231 [2], first compound 0.0156 µg/mL, partner 1.25 µg/mL | 0.761
S. aureus DSM 20231 [2], first compound 0.0156 µg/mL, partner 2.5 µg/mL | 0.766
S. aureus DSM 20231 [2], first compound 0.0156 µg/mL, partner 5 µg/mL | 0.493
S. aureus DSM 20231 [2], first compound 0.0312 µg/mL, partner 1.25 µg/mL | 0.643
S. aureus DSM 20231 [2], first compound 0.0312 µg/mL, partner 2.5 µg/mL | 0.635
S. aureus DSM 20231 [2], first compound 0.0312 µg/mL, partner 5 µg/mL | 0.468
S. aureus DSM 20231 [2], first compound 0.0625 µg/mL, partner 1.25 µg/mL | 0.48
S. aureus DSM 20231 [2], first compound 0.0625 µg/mL, partner 2.5 µg/mL | 0.482
S. aureus DSM 20231 [2], first compound 0.0625 µg/mL, partner 5 µg/mL | 0.362
S. aureus Newman [3], first compound 0.0156 µg/mL, partner 1.25 µg/mL | 0.744
S. aureus Newman [3], first compound 0.0156 µg/mL, partner 2.5 µg/mL | 0.683
S. aureus Newman [3], first compound 0.0156 µg/mL, partner 5 µg/mL | 0.424
S. aureus Newman [3], first compound 0.0312 µg/mL, partner 1.25 µg/mL | 0.625
S. aureus Newman [3], first compound 0.0312 µg/mL, partner 2.5 µg/mL | 0.596
S. aureus Newman [3], first compound 0.0312 µg/mL, partner 5 µg/mL | 0.336
S. aureus Newman [3], first compound 0.0625 µg/mL, partner 5 µg/mL | 0.305
S. pneumoniae D39V [4], first compound 0.01 µg/mL, partner 0.325 µg/mL | ≥ 1
S. pneumoniae D39V [4], first compound 0.01 µg/mL, partner 0.65 µg/mL | ≥ 1
S. pneumoniae D39V [4], first compound 0.01 µg/mL, partner 1.3 µg/mL | 0.684
S. pneumoniae D39V [4], first compound 0.02 µg/mL, partner 0.325 µg/mL | 0.988
S. pneumoniae D39V [4], first compound 0.02 µg/mL, partner 0.65 µg/mL | 0.979
S. pneumoniae D39V [4], first compound 0.02 µg/mL, partner 1.3 µg/mL | 0.672
S. pneumoniae D39V [4], first compound 0.04 µg/mL, partner 0.325 µg/mL | 0.722
S. pneumoniae D39V [4], first compound 0.04 µg/mL, partner 0.65 µg/mL | 0.781
S. pneumoniae D39V [4], first compound 0.04 µg/mL, partner 1.3 µg/mL | 0.547

fitness, B. subtilis 168 [1], one replicate
Conditions | first compound 0.075 µg/mL | first compound 0.15 µg/mL | first compound 0.3 µg/mL
partner 1.25 µg/mL | 0.463 | 0.0474 | 0.0657
partner 2.5 µg/mL | 0.404 | 0.0413 | 0.0539
partner 5 µg/mL | 0.145 | 0.0518 | 0.0652

Conditions | Bliss interaction score
B. subtilis 168 [5] | -0.0582
S. aureus DSM 20231 [6] | -0.0528
S. aureus Newman [7] | -0.0412
S. pneumoniae D39V [8] | 0.188
